Measured values published in ChEMBL document CHEMBL5126517, “Structure-Activity Relationship in the Leucettine Family of Kinase Inhibitors” (J Med Chem, 2022).
pEC50, pIC50: −log10 of the molar value.

Molecular target: Dual specificity tyrosine-phosphorylation-regulated kinase 1B (Homo sapiens, UniProt Q9Y463)
Details: not given

Dual specificity tyrosine-phosphorylation-regulated kinase 1B, sequence (Q9Y463 whole entry): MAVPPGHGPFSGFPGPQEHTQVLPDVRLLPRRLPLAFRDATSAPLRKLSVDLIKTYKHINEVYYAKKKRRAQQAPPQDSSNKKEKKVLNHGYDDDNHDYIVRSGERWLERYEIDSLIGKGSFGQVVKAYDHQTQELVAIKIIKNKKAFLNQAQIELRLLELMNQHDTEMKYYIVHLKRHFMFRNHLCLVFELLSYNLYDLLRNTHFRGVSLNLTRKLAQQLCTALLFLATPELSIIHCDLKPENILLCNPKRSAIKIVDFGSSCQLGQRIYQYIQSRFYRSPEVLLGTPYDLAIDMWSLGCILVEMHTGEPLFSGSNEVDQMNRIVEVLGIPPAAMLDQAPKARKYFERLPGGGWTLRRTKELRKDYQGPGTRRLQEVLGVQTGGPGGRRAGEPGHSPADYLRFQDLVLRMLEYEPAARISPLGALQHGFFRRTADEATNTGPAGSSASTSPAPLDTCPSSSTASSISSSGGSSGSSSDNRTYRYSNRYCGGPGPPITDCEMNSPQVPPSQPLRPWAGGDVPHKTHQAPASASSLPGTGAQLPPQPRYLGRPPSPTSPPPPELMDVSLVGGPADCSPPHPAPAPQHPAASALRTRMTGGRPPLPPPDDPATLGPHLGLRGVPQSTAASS

SMILES	pIC50
O=C1NC(Nc2ccc(-c3ccccc3)cc2)=N/C1=C\c1ccc2c(c1)OCO2	< 5.00

Molecular target: T1, Dual specificity tyrosine-phosphorylation-regulated kinase 1A (Homo sapiens, UniProt Q13627)
Experiment: Inhibition of DYRK1A in human SH-SY5Y overexpressing Tau4R cells assessed as phosphorylated Tau Thr212 residue level at 10 uM incubated for 6 hrs by western blot analysis relative to control
Format: cell-based
Details: not given

SMILES	inhibition
CCCCOc1ccc(/C=C2\N=C(Nc3ccccc3)NC2=O)cc1OC	-8%
O=C1NC(Nc2ccc(-c3ccccc3)cc2)=N/C1=C\c1ccc2c(c1)OCO2	-5.1%

System: HT-22
Experiment: Neuroprotective activity against glutamate-induced cell death in mouse HT-22 cells treated for 24 hrs by MTS assay
Format: functional, cell-based
Details: HT-22, 24 h

SMILES	pEC50
O=C1NC(Nc2ccccc2)=N/C1=C\c1cccc(F)c1	5.46
CCCCOc1ccc(/C=C2\N=C(Nc3ccccc3)NC2=O)cc1OC	5.61
O=C1NC(Nc2ccc(-c3ccccc3)cc2)=N/C1=C\c1ccc2c(c1)OCO2	< 4.70

Molecular target: T2, Cannabinoid receptor 1 (Homo sapiens, UniProt P21554)
Experiment: Antagonist activity at CP-55940-activated CB1 receptor (unknown origin) at 10 uM by beta-arrestin assay relative to control
Format: functional
Set-up: scale not given: the % may be the effect or the level left
Details: not given

T2 sequence (P21554 whole entry): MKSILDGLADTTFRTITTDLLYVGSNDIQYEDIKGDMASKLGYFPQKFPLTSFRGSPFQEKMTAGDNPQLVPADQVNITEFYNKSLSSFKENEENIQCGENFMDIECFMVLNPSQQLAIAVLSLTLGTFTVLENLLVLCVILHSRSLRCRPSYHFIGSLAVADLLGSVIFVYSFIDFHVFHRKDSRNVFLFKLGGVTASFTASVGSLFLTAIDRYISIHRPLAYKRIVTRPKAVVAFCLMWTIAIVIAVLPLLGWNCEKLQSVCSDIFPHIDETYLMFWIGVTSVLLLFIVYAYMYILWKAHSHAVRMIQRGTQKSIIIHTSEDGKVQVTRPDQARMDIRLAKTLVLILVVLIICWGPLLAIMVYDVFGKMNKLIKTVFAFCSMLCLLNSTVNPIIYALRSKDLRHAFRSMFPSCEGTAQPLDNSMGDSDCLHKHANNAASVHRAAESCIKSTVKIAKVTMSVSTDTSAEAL

SMILES	Activity
CN1C(=O)/C(=C/c2ccc3c(c2)OCO3)N=C1N [LEUCETTAMINE B]	9.5%
O=C1NC(Nc2ccc(-c3ccccc3)cc2)=N/C1=C\c1ccc2c(c1)OCO2	36.8%

Same assay, conditions: filed as antagonist

SMILES	Activity
O=C1NC(Nc2ccccc2)=N/C1=C\c1cccc(F)c1	79.5%
CCCCOc1ccc(/C=C2\N=C(Nc3ccccc3)NC2=O)cc1OC	54.3%

Molecular target: T1, Dual specificity tyrosine-phosphorylation-regulated kinase 1A
Experiment: Inhibition of GST-fused human recombinant DYRK1A expressed in Escherichia coli using GRSRSRSRSRSR peptide as substrate incubated for 30 mins in presence of ATP by scintillation counting method
Details: not given

SMILES	pIC50
O=C1NC(Nc2ccccc2)=N/C1=C\c1cccc(F)c1	< 5.00
O=C1NC(Nc2ccc(-c3ccccc3)cc2)=N/C1=C\c1ccc2c(c1)OCO2	5.09

System: not listed separately
Experiment: Neurotoxicity against mouse HT-22 cells assessed as cell survival treated for 24 hrs by MTS assay
Format: toxicity, cell-based
Details: not given

SMILES	IC50 at 24 h
O=C1NC(Nc2ccccc2)=N/C1=C\c1cccc(F)c1	> 20 µM

Molecular target: Dual specificity protein kinase CLK3 (Mus musculus, UniProt O35492)
Experiment: Inhibition of GST-fused mouse recombinant CLK3 expressed in Escherichia coli using GRSRSRSRSRSR peptide as substrate incubated for 30 mins in presence of ATP by scintillation counting method
Details: not given

Dual specificity protein kinase CLK3, sequence (O35492 whole entry, the tested form may be a part): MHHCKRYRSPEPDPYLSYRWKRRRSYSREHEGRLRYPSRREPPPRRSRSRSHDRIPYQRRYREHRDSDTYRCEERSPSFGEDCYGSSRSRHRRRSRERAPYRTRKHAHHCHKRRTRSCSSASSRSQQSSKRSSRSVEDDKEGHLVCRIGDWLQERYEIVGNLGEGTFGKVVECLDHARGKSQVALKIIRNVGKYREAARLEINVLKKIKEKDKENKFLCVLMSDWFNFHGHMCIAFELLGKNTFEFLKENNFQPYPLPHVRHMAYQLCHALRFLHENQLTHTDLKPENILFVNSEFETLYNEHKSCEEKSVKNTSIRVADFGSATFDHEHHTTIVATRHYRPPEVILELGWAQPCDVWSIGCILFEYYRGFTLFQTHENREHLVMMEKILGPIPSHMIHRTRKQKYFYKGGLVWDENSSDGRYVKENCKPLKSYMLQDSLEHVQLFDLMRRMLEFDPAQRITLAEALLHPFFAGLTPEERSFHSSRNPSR

SMILES	pIC50
CN1C(=O)/C(=C/c2ccc3c(c2)OCO3)N=C1N [LEUCETTAMINE B]	5.22

Molecular target: Dual specificity protein kinase CLK1 (Mus musculus, UniProt P22518)
Experiment: Inhibition of GST-fused mouse recombinant CLK1 expressed in Escherichia coli using GRSRSRSRSRSR peptide as substrate incubated for 30 mins in presence of ATP by scintillation counting method
Details: not given

Dual specificity protein kinase CLK1, sequence (P22518 whole entry, the tested form may be a part): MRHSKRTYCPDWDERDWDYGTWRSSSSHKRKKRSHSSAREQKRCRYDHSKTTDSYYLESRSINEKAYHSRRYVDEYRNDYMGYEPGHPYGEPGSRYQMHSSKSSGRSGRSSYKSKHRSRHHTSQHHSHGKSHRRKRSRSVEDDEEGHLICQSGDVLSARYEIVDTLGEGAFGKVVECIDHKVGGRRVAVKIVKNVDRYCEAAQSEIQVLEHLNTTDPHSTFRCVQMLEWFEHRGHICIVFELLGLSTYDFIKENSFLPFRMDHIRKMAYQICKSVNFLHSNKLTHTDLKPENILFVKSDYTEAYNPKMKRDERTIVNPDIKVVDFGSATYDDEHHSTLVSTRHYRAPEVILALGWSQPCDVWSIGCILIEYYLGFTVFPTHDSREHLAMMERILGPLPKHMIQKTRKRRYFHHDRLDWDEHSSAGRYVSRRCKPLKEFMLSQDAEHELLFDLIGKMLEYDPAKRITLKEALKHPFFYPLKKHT

SMILES	pIC50
CN1C(=O)/C(=C/c2ccc3c(c2)OCO3)N=C1N [LEUCETTAMINE B]	6.85
O=C1NC(Nc2ccc(-c3ccccc3)cc2)=N/C1=C\c1ccc2c(c1)OCO2	< 5.00

Molecular target: Dual specificity protein kinase CLK4 (Mus musculus, UniProt O35493)
Experiment: Inhibition of GST-fused mouse recombinant CLK4 expressed in Escherichia coli using GRSRSRSRSRSR peptide as substrate incubated for 30 mins in presence of ATP by scintillation counting method
Details: not given

Dual specificity protein kinase CLK4, sequence (O35493 whole entry, the tested form may be a part): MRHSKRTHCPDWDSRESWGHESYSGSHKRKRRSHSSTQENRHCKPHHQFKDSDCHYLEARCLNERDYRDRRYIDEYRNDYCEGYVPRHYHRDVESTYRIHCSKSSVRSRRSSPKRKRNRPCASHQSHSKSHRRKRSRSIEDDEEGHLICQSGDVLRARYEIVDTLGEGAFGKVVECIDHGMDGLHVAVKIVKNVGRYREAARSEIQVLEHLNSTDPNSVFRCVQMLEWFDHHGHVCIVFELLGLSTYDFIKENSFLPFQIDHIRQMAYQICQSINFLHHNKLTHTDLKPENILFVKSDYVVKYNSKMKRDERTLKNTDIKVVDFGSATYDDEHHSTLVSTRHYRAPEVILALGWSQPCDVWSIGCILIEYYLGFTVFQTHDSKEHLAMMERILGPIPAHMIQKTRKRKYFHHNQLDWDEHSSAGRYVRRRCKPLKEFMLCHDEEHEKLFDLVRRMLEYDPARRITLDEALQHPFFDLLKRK

SMILES	pIC50
O=C1NC(Nc2ccc(-c3ccccc3)cc2)=N/C1=C\c1ccc2c(c1)OCO2	5.28

System: not listed separately
Experiment: Neurotoxicity against mouse HT-22 cells assessed as cell survival at 20 uM treated for 24 hrs by MTS assay
Format: toxicity, cell-based
Details: ht-22, 24 h

SMILES	Activity
CN1C(=O)/C(=C/c2ccc3c(c2)OCO3)N=C1N [LEUCETTAMINE B]	Non-Toxic
CCCCOc1ccc(/C=C2\N=C(Nc3ccccc3)NC2=O)cc1OC	Non-Toxic
O=C1NC(Nc2ccc(-c3ccccc3)cc2)=N/C1=C\c1ccc2c(c1)OCO2	Non-Toxic

Molecular target: Glycogen synthase kinase-3 (Sus scrofa, UniProt B2LUN4+I6LNT8)
Experiment: Inhibition of porcine brain GSK-3alpha/beta using YRRAAVPPSPSLSRHSSPHQpSEDEEE as substrate incubated for 30 mins in presence of ATP by scintillation counting method
Format: tissue-based
Details: not given

SMILES	IC50
CN1C(=O)/C(=C/c2ccc3c(c2)OCO3)N=C1N [LEUCETTAMINE B]	5 µM

Molecular target: Dual specificity protein kinase CLK2 (Mus musculus, UniProt O35491)
Experiment: Inhibition of mouse recombinant GST-fused CLK2 expressed in Escherichia coli using GRSRSRSRSRSR peptide as substrate incubated for 30 mins in presence of ATP by scintillation counting method
Details: not given

Dual specificity protein kinase CLK2, sequence (O35491 whole entry, the tested form may be a part): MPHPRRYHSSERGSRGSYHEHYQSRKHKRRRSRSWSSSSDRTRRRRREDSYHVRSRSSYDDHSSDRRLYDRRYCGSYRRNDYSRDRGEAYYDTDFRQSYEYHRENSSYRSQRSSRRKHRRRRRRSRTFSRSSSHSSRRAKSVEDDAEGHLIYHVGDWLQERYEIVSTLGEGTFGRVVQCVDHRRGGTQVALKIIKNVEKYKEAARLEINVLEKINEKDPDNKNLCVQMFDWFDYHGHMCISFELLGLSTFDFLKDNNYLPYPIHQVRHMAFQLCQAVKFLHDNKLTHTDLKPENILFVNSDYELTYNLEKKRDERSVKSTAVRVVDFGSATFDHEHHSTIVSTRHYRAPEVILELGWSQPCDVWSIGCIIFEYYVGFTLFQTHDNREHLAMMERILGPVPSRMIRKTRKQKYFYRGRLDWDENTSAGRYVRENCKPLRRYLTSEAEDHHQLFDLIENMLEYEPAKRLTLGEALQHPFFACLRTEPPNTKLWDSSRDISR

SMILES	pIC50
CN1C(=O)/C(=C/c2ccc3c(c2)OCO3)N=C1N [LEUCETTAMINE B]	6.03
O=C1NC(Nc2ccc(-c3ccccc3)cc2)=N/C1=C\c1ccc2c(c1)OCO2	< 5.00

Molecular target: T3, Dual specificity tyrosine-phosphorylation-regulated kinase 3 (Homo sapiens, UniProt O43781)
T3 sequence (O43781 whole entry): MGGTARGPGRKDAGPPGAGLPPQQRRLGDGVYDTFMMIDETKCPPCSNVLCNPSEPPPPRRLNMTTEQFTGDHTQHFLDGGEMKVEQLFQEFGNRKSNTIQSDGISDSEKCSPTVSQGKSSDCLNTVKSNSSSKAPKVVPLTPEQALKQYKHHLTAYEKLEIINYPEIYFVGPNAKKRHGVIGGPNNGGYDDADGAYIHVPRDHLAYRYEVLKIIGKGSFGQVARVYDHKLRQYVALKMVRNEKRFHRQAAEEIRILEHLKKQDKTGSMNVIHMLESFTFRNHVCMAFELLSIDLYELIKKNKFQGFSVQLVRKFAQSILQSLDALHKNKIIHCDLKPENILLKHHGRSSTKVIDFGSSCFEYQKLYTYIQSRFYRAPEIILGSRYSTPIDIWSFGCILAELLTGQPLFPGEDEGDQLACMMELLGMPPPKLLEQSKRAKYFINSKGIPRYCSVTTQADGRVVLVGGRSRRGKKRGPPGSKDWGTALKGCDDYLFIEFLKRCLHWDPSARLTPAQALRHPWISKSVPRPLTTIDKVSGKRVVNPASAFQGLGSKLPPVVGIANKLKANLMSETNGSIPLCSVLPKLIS
Experiment: Inhibition of GST-fused human recombinant DYRK3 expressed in Escherichia coli using GRSRSRSRSRSR peptide as substrate incubated for 30 mins in presence of ATP by scintillation counting method
Details: not given

SMILES	pIC50
CN1C(=O)/C(=C/c2ccc3c(c2)OCO3)N=C1N [LEUCETTAMINE B]	5.89

System: U2OS
Experiment: Induction of PI3K/mTor-dependent autophagy in human U2OS cells assessed as number of LC3 foci per cell at 10 uM measured after 4 hrs
Format: cell-based
Details: filed as activator

SMILES	Activity
O=C1NC(Nc2ccccc2)=N/C1=C\c1cccc(F)c1	5.9
CN1C(=O)/C(=C/c2ccc3c(c2)OCO3)N=C1N [LEUCETTAMINE B]	4.3
CCCCOc1ccc(/C=C2\N=C(Nc3ccccc3)NC2=O)cc1OC	7.6
O=C1NC(Nc2ccc(-c3ccccc3)cc2)=N/C1=C\c1ccc2c(c1)OCO2	6.8

System: HT-22
Experiment: Modulation of CLK1 pre-mRNA splicing in mouse HT-22 cells assessed as inclusion of CLK1 exon 4 by measuring change in threshold cycle at 10 uM measured after 4 hrs by real time PCR analysis
Format: cell-based
Details: filed as modulator

SMILES	deltaCT
CN1C(=O)/C(=C/c2ccc3c(c2)OCO3)N=C1N [LEUCETTAMINE B]	1.14

Molecular target: Serine/threonine-protein kinase pim-1 (Homo sapiens, UniProt P11309)
Experiment: Inhibition of human recombinant Pim1 expressed in Escherichia coli using histone H1 as substrate incubated for 30 mins in presence of ATP by scintillation counting method
Details: not given

Serine/threonine-protein kinase pim-1, sequence (P11309 whole entry): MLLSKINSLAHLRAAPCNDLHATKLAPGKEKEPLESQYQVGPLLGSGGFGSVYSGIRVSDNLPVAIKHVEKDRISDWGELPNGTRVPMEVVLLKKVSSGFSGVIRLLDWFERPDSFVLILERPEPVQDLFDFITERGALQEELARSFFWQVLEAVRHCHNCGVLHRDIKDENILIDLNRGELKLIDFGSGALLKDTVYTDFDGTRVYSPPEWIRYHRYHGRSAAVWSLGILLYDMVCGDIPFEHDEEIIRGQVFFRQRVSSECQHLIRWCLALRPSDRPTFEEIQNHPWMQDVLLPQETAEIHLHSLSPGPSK

SMILES	pIC50
O=C1NC(Nc2ccccc2)=N/C1=C\c1cccc(F)c1	< 5.00
CN1C(=O)/C(=C/c2ccc3c(c2)OCO3)N=C1N [LEUCETTAMINE B]	< 5.00

Molecular target: T2, Cannabinoid receptor 1
Experiment: Antagonist activity at CP-55940-activated CB1 receptor (unknown origin) by beta-arrestin assay
Format: functional
Details: not given

SMILES	pIC50
O=C1NC(Nc2ccccc2)=N/C1=C\c1cccc(F)c1	6.04
CN1C(=O)/C(=C/c2ccc3c(c2)OCO3)N=C1N [LEUCETTAMINE B]	< 5.00

Molecular target: T4, Dual specificity tyrosine-phosphorylation-regulated kinase 2 (Homo sapiens, UniProt Q92630)
T4 sequence (Q92630 whole entry): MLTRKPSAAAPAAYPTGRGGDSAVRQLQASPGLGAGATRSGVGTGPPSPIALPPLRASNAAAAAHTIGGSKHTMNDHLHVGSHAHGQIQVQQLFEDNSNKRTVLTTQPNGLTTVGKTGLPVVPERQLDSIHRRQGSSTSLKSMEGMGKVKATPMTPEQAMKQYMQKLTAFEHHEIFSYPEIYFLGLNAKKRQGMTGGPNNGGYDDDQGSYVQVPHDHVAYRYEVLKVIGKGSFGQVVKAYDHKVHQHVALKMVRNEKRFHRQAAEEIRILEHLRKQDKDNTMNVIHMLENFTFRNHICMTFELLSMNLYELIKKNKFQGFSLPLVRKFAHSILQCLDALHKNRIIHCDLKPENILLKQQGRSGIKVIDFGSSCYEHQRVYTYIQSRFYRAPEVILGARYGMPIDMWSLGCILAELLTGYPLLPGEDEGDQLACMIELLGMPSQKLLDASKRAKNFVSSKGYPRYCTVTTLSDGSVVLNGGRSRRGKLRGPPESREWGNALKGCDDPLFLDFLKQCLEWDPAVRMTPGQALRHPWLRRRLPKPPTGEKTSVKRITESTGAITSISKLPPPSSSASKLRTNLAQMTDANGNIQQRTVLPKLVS
Experiment: Inhibition of GST-fused human recombinant DYRK2 expressed in Escherichia coli using GRSRSRSRSRSR peptide as substrate incubated for 30 mins in presence of ATP by scintillation counting method
Details: not given

SMILES	pIC50
CN1C(=O)/C(=C/c2ccc3c(c2)OCO3)N=C1N [LEUCETTAMINE B]	6.37
O=C1NC(Nc2ccc(-c3ccccc3)cc2)=N/C1=C\c1ccc2c(c1)OCO2	5.38
